The results in this text go back to ChEMBL document CHEMBL5465560, “Selectivity Literature for EUbOPEN Chemogenomic Library” (2024).

Experiment [1] deals with T1, Tyrosine-protein kinase ITK/TSK (Homo sapiens) (UniProt Q08881).
T1 sequence (whole entry): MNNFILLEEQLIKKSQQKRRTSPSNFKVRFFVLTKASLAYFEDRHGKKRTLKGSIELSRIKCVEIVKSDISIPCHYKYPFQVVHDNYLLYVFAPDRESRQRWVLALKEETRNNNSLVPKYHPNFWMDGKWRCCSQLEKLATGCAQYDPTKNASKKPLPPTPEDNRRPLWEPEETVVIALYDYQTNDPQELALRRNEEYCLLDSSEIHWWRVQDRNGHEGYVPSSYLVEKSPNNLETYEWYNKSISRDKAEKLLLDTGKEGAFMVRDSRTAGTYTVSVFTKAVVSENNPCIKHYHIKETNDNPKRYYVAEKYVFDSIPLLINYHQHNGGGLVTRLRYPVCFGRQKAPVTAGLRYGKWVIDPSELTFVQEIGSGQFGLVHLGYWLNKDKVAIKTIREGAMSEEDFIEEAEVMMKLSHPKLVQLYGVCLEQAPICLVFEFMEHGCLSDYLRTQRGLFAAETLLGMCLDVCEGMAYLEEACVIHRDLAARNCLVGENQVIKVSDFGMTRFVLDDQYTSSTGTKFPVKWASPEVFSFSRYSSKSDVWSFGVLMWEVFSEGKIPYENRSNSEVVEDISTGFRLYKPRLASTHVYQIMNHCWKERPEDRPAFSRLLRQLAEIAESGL
To be noted: at 10 µM.

Experiment [2] concerns the target Tyrosine-protein kinase JAK1 (Homo sapiens, UniProt P23458). Briefly: Selectivity interaction (SelectScreen Kinase Profiling (Thermo Fisher Scientific)) EUB0001558a JAK1. As to conditions: at 1 µM.
The target of experiment [3] is Mitogen-activated protein kinase 4 (Homo sapiens) (UniProt P31152). Briefly: Selectivity interaction (KinomeScan (DiscoverX)) EUB0001079a MAPK4. To be noted: at 1 µM.
Sequence of Mitogen-activated protein kinase 4 (Homo sapiens) (P31152 whole entry): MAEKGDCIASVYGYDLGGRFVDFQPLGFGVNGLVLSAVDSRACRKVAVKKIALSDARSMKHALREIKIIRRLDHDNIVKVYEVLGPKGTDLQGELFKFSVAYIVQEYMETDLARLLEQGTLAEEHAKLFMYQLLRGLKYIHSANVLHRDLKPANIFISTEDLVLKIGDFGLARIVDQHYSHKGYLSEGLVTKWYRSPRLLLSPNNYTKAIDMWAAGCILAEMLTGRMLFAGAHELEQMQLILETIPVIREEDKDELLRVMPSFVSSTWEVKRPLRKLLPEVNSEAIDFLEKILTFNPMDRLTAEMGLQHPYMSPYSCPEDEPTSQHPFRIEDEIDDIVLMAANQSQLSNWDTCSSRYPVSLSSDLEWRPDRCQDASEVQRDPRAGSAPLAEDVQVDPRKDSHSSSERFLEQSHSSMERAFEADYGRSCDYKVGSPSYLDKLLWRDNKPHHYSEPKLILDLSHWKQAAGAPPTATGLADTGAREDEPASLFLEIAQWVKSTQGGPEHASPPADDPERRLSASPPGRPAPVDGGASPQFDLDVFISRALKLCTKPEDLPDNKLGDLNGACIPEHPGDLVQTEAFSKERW
For experiment [4], the target named is Protein-tyrosine kinase 2-beta (Homo sapiens) (UniProt Q14289). Briefly: Selectivity interaction (KinomeScan (DiscoverX)) EUB0000092b PTK2B. To be noted: at 10 µM.
Experiment [5] deals with T2, Serine/threonine-protein kinase Sgk1 (Homo sapiens) (UniProt O00141).
T2 sequence (whole entry): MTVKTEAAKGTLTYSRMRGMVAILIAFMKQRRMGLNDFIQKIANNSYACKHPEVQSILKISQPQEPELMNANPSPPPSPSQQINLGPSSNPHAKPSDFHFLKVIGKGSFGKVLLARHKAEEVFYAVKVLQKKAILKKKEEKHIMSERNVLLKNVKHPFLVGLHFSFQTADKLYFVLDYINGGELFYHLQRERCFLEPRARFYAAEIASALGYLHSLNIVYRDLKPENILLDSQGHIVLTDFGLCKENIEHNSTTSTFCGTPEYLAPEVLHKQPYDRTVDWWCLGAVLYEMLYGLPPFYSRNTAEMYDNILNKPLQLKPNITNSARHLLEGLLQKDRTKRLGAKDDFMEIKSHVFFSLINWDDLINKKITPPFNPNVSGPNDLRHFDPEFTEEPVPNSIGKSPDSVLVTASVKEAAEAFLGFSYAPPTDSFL
Briefly: Selectivity interaction (KinomeScan (DiscoverX)) EUB0001049a SGK1. As to conditions: at 1 µM.

The target of experiment [6] is Cyclin-dependent kinase 4/cyclin D1 (Homo sapiens) (UniProt P11802+P24385). Nature of the experiment: (§1) Selectivity interaction (KinomeScan (DiscoverX)) EUB0000045b CDK4. Type of experiment: protein-complex assay.
In experiment [7] the target is CDK4/Cyclin D3 (Homo sapiens) (UniProt P11802+P30281). The description is as §1. Type of experiment: protein-complex assay.
The target in experiment [8] is Serine/threonine-protein kinase NIM1 (Homo sapiens, UniProt Q8IY84). Nature of the experiment: Selectivity interaction (KinomeScan (DiscoverX)) EUB0000229b NIM1K. As to conditions: at 10 µM.
Sequence of Serine/threonine-protein kinase NIM1 (Q8IY84 whole entry): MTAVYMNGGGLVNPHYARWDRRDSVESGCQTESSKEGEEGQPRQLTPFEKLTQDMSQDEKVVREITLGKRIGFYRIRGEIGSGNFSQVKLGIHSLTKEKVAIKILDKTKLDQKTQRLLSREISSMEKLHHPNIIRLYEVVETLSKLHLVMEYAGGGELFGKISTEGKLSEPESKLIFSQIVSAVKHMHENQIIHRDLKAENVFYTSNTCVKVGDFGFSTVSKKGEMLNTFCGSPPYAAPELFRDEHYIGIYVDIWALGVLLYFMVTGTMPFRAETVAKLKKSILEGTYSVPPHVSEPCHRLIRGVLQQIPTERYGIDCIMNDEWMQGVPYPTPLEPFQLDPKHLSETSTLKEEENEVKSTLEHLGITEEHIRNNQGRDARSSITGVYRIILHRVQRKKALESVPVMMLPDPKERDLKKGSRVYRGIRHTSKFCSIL
Experiment [9] in a line: Selectivity interaction (KinomeScan (DiscoverX)) EUB0000595a CDK2H. To be noted: at 10 µM.
Experiment [10] addresses Tyrosine-protein kinase receptor Tie-1 (Homo sapiens) (UniProt P35590). Briefly: Selectivity interaction (KinomeScan (DiscoverX)) EUB0001619a TIE1. To be noted: at 1 µM.
For experiment [11], the target named is Mitogen-activated protein kinase kinase kinase 9 (Homo sapiens) (UniProt P80192). Briefly: Selectivity interaction (Kinase panel (KiNativ target engagement assay in Jurkat cells)) EUB0001635a MAP3K9. As to conditions: Selectivity number of off-targets 0.0, Selectivity number of targets 233.0, Source Knowledge https://www.sciencedirect.com/science/article/pii/S2451945619300674?via%3Dihub, at 1 µM. The class given is cell-based.
Sequence of Mitogen-activated protein kinase kinase kinase 9 (Homo sapiens) (P80192 whole entry, looked up): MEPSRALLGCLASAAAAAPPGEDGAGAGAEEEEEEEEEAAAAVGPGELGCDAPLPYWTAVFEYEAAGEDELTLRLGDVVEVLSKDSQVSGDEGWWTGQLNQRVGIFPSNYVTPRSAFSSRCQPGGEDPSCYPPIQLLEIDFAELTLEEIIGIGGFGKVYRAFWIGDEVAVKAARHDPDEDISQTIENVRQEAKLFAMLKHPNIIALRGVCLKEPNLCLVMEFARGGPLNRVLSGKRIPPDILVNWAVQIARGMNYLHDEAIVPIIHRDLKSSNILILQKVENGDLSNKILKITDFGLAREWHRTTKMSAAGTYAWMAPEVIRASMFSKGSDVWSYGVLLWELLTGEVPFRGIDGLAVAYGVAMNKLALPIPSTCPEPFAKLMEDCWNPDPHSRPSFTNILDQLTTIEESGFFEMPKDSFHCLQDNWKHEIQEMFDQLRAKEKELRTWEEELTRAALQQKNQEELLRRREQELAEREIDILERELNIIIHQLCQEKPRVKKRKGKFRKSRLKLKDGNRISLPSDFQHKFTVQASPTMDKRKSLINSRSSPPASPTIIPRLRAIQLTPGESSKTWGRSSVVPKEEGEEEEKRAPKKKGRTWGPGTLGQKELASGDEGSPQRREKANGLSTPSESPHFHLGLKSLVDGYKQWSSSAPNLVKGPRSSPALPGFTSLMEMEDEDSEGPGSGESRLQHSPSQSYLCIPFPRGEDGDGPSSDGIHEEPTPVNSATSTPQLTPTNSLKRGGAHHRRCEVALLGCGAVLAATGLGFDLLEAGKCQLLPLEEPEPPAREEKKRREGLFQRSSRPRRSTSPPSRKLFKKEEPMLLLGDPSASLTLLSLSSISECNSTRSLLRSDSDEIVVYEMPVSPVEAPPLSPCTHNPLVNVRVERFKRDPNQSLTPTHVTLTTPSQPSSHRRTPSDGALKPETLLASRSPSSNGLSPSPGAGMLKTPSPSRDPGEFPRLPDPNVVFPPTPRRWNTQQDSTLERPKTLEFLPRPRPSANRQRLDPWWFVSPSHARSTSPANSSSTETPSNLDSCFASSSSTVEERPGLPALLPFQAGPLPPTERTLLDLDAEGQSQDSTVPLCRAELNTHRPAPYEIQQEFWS

Experiment [12] concerns the target T3, Serine/threonine-protein kinase Nek9 (Homo sapiens) (UniProt Q8TD19).
T3 sequence (whole entry): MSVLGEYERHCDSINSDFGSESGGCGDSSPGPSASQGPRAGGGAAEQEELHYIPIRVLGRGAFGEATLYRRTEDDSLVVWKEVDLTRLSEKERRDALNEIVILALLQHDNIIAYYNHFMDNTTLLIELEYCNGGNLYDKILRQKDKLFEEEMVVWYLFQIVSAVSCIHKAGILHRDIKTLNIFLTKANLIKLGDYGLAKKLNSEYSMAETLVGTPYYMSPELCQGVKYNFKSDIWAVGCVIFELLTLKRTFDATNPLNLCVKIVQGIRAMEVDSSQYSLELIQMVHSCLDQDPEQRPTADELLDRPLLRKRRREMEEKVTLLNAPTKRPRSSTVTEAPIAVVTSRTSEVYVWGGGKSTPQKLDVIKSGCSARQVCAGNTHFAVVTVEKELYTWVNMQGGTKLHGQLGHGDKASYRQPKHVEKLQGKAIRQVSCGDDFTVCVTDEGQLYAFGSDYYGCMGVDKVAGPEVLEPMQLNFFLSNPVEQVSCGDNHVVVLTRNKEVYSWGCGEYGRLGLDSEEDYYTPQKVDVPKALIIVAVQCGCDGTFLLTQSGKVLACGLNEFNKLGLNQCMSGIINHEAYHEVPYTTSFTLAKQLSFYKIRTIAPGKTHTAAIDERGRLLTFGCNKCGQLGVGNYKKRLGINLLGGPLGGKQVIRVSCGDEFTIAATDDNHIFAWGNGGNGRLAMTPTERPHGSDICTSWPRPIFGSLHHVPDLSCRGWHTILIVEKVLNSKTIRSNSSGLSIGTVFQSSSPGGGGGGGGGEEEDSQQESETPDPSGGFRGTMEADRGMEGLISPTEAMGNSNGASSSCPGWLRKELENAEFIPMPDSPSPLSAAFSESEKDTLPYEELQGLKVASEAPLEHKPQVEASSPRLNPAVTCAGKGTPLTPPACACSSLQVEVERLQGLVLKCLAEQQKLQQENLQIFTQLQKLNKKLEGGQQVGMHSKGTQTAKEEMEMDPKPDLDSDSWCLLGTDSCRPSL
Nature of the experiment: Selectivity interaction (KinomeScan (DiscoverX)) EUB0000618a NEK9. To be noted: at 10 µM.

The structures appear in SMILES notation.

Sequence of Tyrosine-protein kinase receptor Tie-1 (Homo sapiens) (P35590 whole entry): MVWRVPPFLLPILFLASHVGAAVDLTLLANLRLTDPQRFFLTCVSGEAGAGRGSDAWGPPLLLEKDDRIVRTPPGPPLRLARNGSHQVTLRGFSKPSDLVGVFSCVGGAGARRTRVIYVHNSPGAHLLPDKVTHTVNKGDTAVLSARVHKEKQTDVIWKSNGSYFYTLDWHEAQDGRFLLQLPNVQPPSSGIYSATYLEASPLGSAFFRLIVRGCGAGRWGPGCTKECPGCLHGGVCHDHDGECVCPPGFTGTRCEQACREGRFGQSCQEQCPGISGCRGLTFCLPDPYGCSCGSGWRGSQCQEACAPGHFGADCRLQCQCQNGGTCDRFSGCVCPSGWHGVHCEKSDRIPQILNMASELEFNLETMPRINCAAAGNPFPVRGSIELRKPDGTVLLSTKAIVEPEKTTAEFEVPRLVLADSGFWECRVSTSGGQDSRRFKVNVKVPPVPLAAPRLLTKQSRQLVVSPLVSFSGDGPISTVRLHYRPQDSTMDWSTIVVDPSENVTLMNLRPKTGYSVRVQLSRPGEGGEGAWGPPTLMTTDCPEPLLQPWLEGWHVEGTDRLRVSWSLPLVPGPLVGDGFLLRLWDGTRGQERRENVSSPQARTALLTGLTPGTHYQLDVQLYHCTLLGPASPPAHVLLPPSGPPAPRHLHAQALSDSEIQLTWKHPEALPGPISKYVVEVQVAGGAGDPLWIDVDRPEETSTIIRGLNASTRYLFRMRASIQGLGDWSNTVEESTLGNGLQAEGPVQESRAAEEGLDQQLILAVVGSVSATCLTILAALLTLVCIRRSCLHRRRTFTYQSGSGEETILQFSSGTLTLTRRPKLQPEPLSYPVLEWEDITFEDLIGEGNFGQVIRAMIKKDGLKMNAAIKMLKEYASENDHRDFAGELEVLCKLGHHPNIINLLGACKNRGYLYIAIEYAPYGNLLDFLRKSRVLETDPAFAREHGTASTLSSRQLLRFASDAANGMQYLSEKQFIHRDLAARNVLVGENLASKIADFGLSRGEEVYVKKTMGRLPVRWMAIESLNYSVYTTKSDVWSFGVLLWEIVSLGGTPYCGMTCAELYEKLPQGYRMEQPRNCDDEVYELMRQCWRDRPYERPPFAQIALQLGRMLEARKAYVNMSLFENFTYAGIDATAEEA
Sequence of Tyrosine-protein kinase JAK1 (P23458 whole entry): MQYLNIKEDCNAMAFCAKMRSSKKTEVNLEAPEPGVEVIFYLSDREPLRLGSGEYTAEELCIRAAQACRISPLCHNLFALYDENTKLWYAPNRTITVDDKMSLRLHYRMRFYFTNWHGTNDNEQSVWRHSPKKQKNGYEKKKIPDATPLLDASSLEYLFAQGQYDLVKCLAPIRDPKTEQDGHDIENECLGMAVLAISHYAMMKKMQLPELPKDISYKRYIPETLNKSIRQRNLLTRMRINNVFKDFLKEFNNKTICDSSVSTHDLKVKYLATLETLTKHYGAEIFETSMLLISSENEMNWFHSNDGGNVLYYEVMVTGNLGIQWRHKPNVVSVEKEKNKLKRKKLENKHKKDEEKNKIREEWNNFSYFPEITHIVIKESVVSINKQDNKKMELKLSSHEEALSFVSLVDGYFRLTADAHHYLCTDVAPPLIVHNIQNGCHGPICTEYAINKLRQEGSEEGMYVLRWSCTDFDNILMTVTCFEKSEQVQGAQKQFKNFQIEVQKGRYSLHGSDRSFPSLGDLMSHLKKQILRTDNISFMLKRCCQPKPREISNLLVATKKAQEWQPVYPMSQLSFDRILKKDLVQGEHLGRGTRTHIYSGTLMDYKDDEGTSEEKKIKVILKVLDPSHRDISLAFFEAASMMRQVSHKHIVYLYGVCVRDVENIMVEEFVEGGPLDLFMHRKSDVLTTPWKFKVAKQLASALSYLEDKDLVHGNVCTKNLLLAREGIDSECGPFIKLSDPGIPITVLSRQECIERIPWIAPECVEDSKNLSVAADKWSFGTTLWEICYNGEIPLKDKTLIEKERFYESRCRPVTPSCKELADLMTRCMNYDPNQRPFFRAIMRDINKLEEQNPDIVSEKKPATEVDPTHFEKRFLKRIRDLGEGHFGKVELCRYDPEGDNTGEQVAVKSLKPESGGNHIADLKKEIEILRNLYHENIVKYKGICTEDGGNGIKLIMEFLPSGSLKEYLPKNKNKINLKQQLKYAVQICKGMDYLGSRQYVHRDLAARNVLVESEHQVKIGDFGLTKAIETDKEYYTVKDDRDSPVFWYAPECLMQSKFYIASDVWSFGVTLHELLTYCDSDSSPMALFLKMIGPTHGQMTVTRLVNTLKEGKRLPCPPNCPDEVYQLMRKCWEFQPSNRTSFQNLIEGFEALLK

For `Cc1cc([C@@H](C)Nc2ccccc2C(=O)O)c2nc(N3CCOCC3)cc(=O)n2c1` [AZD-6482], the % of control in experiment [1] was 98%.

In experiment [2], `CC(C)(O)[C@H](F)CN1Cc2cc(NC(=O)c3cnn4cccnc34)c(N3CCOCC3)cc2C1=O` showed a % of inhibition of 83.5%.

The molecule `Nc1cnc(N2CCc3cc(S(=O)(=O)Nc4c(F)cc(Cl)cc4F)cc(N4CCCC4=O)c32)nc1` [TP-020n] displayed a % of control in experiment [3] of 100%.

Consider `CCC(=O)N1CCN(c2ccc(-n3c(=O)ccc4cnc5ccc(-c6cnc7ccccc7c6)cc5c43)cc2C(F)(F)F)CC1`, for which, in experiment [4], the % of control amounted to 100%.

Molecule `COc1cc(Nc2nc(C)cc(-c3cnn4nc(OC)ccc34)n2)cc(C(F)(F)F)c1` returned a % of control in experiment [5] of 94%.

With `C=CC(=O)Nc1cc(-n2c(=O)ccc3cnc4ccc(-c5ccc(NS(C)(=O)=O)cc5)cc4c32)ccc1C`, the % of control worked out at 100% in [6] (at 1 µM), 100% in experiment [6] (at 10 µM), 100% in experiment [7] (at 1 µM) and 93% in [7] (at 10 µM).

In turn, `COc1cc(N(C)c2ccnc3ccc(C(F)(F)F)cc23)cc(OC)c1OC` yielded a % binding in [8] of 100%.

In [9], `COCC(=O)NC/C=C/c1ccc2ncnc(Nc3ccc(Oc4ccc(C)nc4)c(C)c3)c2c1` [CP-724714] registered a % of control of 100%.

In experiment [10], `N#Cc1cccc(-c2c[nH]c3ncnc(N4CCOCC4)c23)c1` showed a % of control of 80%.

`C=CC(=O)Nc1ccc(C(=O)Nc2[nH]nc3c2CN(C(=O)N[C@H](CN(C)C)c2ccccc2)C3(C)C)cc1` showed a % of engagement in [11] of 0.3%.

On to `O[C@H]1CC[C@H](Nc2ncc3nc(Nc4c(F)cc(F)cc4F)n([C@H]4CCOC4)c3n2)CC1`, for which, in experiment [12], the % of control is 100%.
